Data reported in patent US12589101B2, “Cyclodextrin protein drug conjugates” (Regeneron Pharmaceuticals, Inc., priority 2017, dated 2026).
pEC50: −log10 of the molar value. Converted amounts (≈) assume the structure as drawn. Like-named read-outs stand apart in the source and are kept apart here. Square brackets hold non-standard residues; d marks the D form. Peptide text beside a SMILES is read from it. * marks the point of attachment. Dolaproine = CO[C@@H]([C@@H]1CCCN1)[C@@H](C)C(=O)O; Dil = CC[C@H](C)[C@H](NC)[C@@H](CC(=O)O)OC; X1 = C[C@@H](N*)[C@@H](O)c1ccccc1; NMeV = CN[C@H](C(=O)O)C(C)C

How the values were obtained:
[1] = Solubility of linker-payloads (LC-MS standard curve, saturated solution); format: physicochemical
Protocol: The following test assays the solubility of the linker-payloads with a cyclodextrin moiety and the linker-payloads without a cyclodextrin moiety.
The test compounds were dissolved in DMSO to build a standard curve using LC-MS method A or B. The test sample was dissolved in water and sonicated for 10 minutes, and then centrifuged. The upper clear solution was analyzed using the same method A or B and the solubility was calculated based on its peak area.
Detailed test procedures were as follows: • 1. […] 0.05 mg of compound was suspended in water (1 mL) and sonicated for 10 minutes. After centrifugation, the clear solution above was collected to provide the saturated sample solution. • 3. All the standard solutions A, B, C, D, E and sample solution were analyzed by LCMS (using the same method and same injection volume) to obtain the peak areas. • 4. Calculate the standard curve according to the data of A-D (X=concentration, Y=peak areas). • 5. Calculate to obtain the concentration of saturated sample solution according to the functions obtained above.

Cathepsin B = Cathepsin B (Homo sapiens, UniProt P07858); test: Cathepsin B cleavage rate of linker-payloads (Example 66); format: biochemical; details: for capB / CapB (%): Cathepsin B cleavage rate; for capB: Table 8A; for CapB (%): pH 5.0, 37° C.
Protocol: Step 1: Preparation of Cathepsin B buffer: 0.1 M NaOAc/0.01M DTT (pH5.0) Dissolve 8.3 g/L NaOAc, 1.54 g/L DTT in deionized water. Adjust pH to 5.0 with HCl/sodium hydroxide.
Step 2: Test Cleavage Rate
• 1. Prepare 25 μM of testing sample: To a 2-mL-tube was added 0.5 mg of testing sample, followed by the addition of 0.2 mL of DMSO. The solution was added dropwise into 0.8 mL of 0.1 M NaOAc/0.01 M DTT buffer. The obtained mixtures were sonicated for 5 minutes to obtain clear and colorless solutions. The pH value of the solution was around 5 according to pH test strip. • 2. Preheat assay buffer: 0.1 M NaOAc/0.01 M DTT (pH 5.0) • 3. Spiking solutions for test compounds: 25 μM Spiking solutions for test compounds: Add 2 μL of 5 mM stock solution into 398 μL of 0.1 M NaOAc/0.01 M DTT buffer (pH 5.0). • 4. Prepare 0.47 μg/μL Cathepsin B in 50 mM NaOAc/1 mM EDTA (pH 5.0). Put on ice. • 5. Without CA074 samples: Add 4 μL of 0.47 μg/μL Cathepsin B into 196 μL of 25 μM Spiking solutions (from step 2), incubate the tubes at 37° C. • 6. With CA074 samples: Add 4 μL of 0.47 μg/μL Cathepsin B with 4 μL of 10 mM Inhibitor (CA074) into 196 μL of 25 μM Spiking solutions (from step 2), incubate the tubes. • 7. After quenching, shake the plate and centrifuge them at 14000 rpm. • 8. Transfer 50 μL of the supernatant from each well into a 96-well sample plate containing 50 μL of ultra pure water (Millipore, ZMQS50F01) for LC/MS analysis. Step 3: Test reference compounds: • 9. Preheat assay buffer: 100 mM Na/K phosphate, pH 6.0, with 1.33 mM EDTA and 2 mM DTT. • 10. Prepare 0.024 μg/μL Cathepsin B: Add 1 μL of 0.47 μg/μL Cathepsin B stock into 19 μL of assay buffer (from step 11). • 11. Add 2 μL of 0.024 μg/μL Cathepsin B (from step 12) to a opaque 96-well plate. • 12. Add 96 μL of assay buffer to each sample. • 13. Add 2 μL of the 10 mM substrate Z-RR-MNA (200 μM final concentration). • 14. For negative control (With inhibitor), add 2 μL of 10 mM Inhibitor (CA074): Immediately read the samples in a kinetic mode at excitation of 340 nm/emission of 425 nm (Read the plate every 30 Second for 3 min). Step 4: Stability of Cathepsin B in incubation samples: • 15. Take 5 μL of incubation samples into 93 μL of assay buffer (from step 11), and then add 2 μL of 10 mM substrate (Z-RR-MNA). • 16. Incubate the samples at 37° C. for 2 min. • 17. Read the samples at excitation of 340 nm/emission of 425 nm.

Human liver Cathepsin B = target: T1, Human liver Cathepsin B (Homo sapiens, UniProt P07858); test: Cathepsin B cleavage assay, payload released (Example 73); format: biochemical; details: 37° C., 50 μM substrate, pH 5
T1 construct: Human liver Cathepsin B (Athens Research & Technology, Cat #16-12-030102); purchased Athens Research & Technology 16-12-030102; host or cells: human liver
Protocol: To determine the effect on the cleavage efficiency on a steroid or LXR agonist payload when a cyclodextrin moiety was added in the linker, a Cathepsin B cleavage assay was performed. For the assay, the linker-payload stock solution (10 mM of linker-payload in DMSO) was added into a solution of 100 mM NaOAc, 10 mM dithiothreitol, at pH5 to obtain a 50 μM substrate solution. Human liver Cathepsin B (Athens Research & Technology, Cat #16-12-030102) in 50 mM NaOAc, 1 mM EDTA, at pH 5, was added to the substrate solution. The Cathepsin B and substrate solution was mixed with and without 10 mM of a Cathepsin B inhibitor (CA074; APE Bio, Cat #A1926), and incubated at 37° C. for 4 hours. Following the 4 hour incubation, acetic acid and then acetonitrile were added to stop the reaction. The quenched samples then underwent centrifugation at 14,000 rpm. Aliquots of the resultant supernatants were then diluted with equal volume of water and analyzed by LC/MS to determine the amount of payload released. The stability and activity of Cathepsin B was confirmed by incubating with 200 μM fluorogenic substrate for Cathepsin B (Santa Cruz Biotechnology, Cat #207975) (fluorescence at excitation of 340 nm/emission of 425 nm).

SKBR3 cells = test: SKBR3 cytotoxicity assay (CellTiter-Glo); format: cell-based
Protocol: To assess the comparability of ADCs with and without CDs containing cytotoxic payloads, a cytotoxicity assay used SKBR3 cells. SKBR3 cells have been commonly used to assess aHer2 ADC activity. An aPRLR ADC has been used as a control mAb ADC in the SKBR3 cytotoxicity assay. For the assay, in vitro cytotoxicity of anti-Her2 ADCs or PRLR ADCs were evaluated using the CellTiter-Glo Assay Kit (Promega, Cat #G7573), in which the quantity of ATP present is used to determine the number of viable cells in culture. For the assay, SKBR3 cells were seeded at 6000 cells/well on Nunclon white 96 well plates in complete growth medium and grown overnight at 37° C. in 5% CO2. For cell viability curves, 1:4 serially diluted ADCs or free payload MMAE were added to the cells at concentrations starting at 100 nM including a no treatment control and were then incubated for 5 days. After the 5-day incubation, cells were incubated at room temperature with 100 μL of CellTiter-Glo reagents for 5 minutes. Relative luminescence units (RLU) were determined on a Victor plate reader (PerkinElmer). The IC50 values were determined from a four-parameter logistic equation over a 10-point response curve (GraphPad Prism). All curves and EC50 values were corrected for payload equivalents. All IC50s are expressed in nM concentration and percentage of cells killed (% kill) is reported for the highest concentration tested.

[2] = water, thermodynamic from solid, Aq. Solubility (mg/mL)
[3] = water, thermodynamic from solid, Solubility
[4] = water, thermodynamic from solid, Table 8A, read-out: Solubility
[5] = water, thermodynamic from solid, aqueous, read-out: Aq. Solubility

SMILES | Solubility ([1]; 10 min) [mg/ mL mg/mL] | solubility at 10 min [1, 2] [mg/mL] | solubility at 10 min [1, 3] [mg/mL] | Cathepsin B cleavage rate (Cathepsin B) [%] | capB (Cathepsin B) | CapB (%) (Cathepsin B) | Percent of payload released at 4 hrs (Human liver Cathepsin B) | Concentration (mM) of saturated solution ([1]; 10 min) [mM] | solubility thermodynamic at 10 min ([1]; water, thermodynamic from solid) [mg/mL] | solubility at 10 min [1, 4] [mg/mL] | solubility at 10 min [1, 5] [mg/mL] | solubility at 10 min ([1]; water, thermodynamic from solid, water, read-out: Solubility) [mg/mL] | pEC50 (SKBR3 cells; Homo sapiens, SK-BR-3, 120 h) | % kill (SKBR3 cells; SKBR3 cells, 5 days, highest concentration tested) [%]
CC(C)[C@H](NC(=O)CCOCCOCCOCCOCCNC(=O)CCC(=O)N1Cc2ccccc2C#Cc2ccccc21)C(=O)N[C@@H](C)C(=O)Nc1ccc2c(c1)[C@@]1(C)CCC[C@](C)(C(=O)NC(=O)[C@@]3(C)CCC[C@]4(C)c5cc(O)ccc5CC[C@@H]34)[C@@H]1CC2 [Ex48, 1-(4-{2-Azatricyclo[10.4.0.0^4,9]hexadeca-1(12),4(9),5,7,13,15-hexaen-10-yn-2-yl}-4-oxobutanamido)-N-[(1S)-1-{[(1 S)-1-{[(4bS,8S,8aR)-8-{[(1S,4aS,10aR)-6-hydroxy-1,4a-dimethyl-1,2,3,4,4a,9,10,10a-octahydrophenanthrene-1-carbonyl]carbamoyl}-4b,8-dimethyl-4b,5,6,7,8,8a,9,10-octahydrophenanthren-3-yl]carbamoyl}ethyl]carbamoyl}-2-methylpropyl]-3,6,9,12-tetraoxapentadecan-15-amide] | <0.1 | < 0.1 | < 0.1 | 62 | 13.6% | % (% ≤50 CapB (%)) | 13.6% | – | – | – | – | – | – | –
CC(C)[C@H](NC(=O)[C@@H](CCCCNC(=O)COC1CCCCCc2c1nnn2CC1OC2OC3C(CO)OC(OC4C(CO)OC(OC5C(CO)OC(OC6C(CO)OC(OC7C(CO)OC(OC1C(O)C2O)C(O)C7O)C(O)C6O)C(O)C5O)C(O)C4O)C(O)C3O)NC(=O)CCOCCOCCOCCOCCNC(=O)CCC(=O)N1Cc2ccccc2C#Cc2ccccc21)C(=O)N[C@@H](C)C(=O)Nc1ccc2c(c1)[C@@]1(C)CCC[C@](C)(C(=O)NC(=O)[C@@]3(C)CCC[C@]4(C)c5cc(O)ccc5CC[C@@H]34)[C@@H]1CC2 (stereo partly shown) [Ex49] | 0.05 | 0.05 (≈ 19.8 µM) | 0.05 (≈ 19.8 µM) | – | 38.5% [1] | % % (60< % % ≤70 CapB (%)) | 38.5% | 0.019 | 0.048 (≈ 19 µM) | – | – | – | – | –
CCCC1O[C@@H]2C[C@H]3[C@@H]4C[C@H](F)C5=CC(=O)C=C[C@]5(C)[C@@]4(F)[C@@H](O)C[C@]3(C)[C@]2(C(=O)CNC(=O)OCc2ccc(NC(=O)[C@H](CCCNC(N)=O)NC(=O)[C@@H](NC(=O)CCOCCOCCOCCOCCNC(=O)CCC(=O)N3Cc4ccccc4C#Cc4ccccc43)C(C)C)cc2)O1 (stereo partly shown) [Ex58, DIBAC-suc-PEG4-vcPAB-1h] | – | – | – | – | 20.8% | % (% ≤50 CapB (%)) | 7.5-17.2% | – | – | < 0.02 | < 0.02 | – | – | –
CCCC1O[C@@H]2C[C@H]3[C@@H]4C[C@H](F)C5=CC(=O)C=C[C@]5(C)[C@@]4(F)[C@@H](O)C[C@]3(C)[C@]2(C(=O)CNC(=O)OCc2ccc(NC(=O)[C@H](CCCNC(N)=O)NC(=O)[C@@H](NC(=O)[C@@H](CCCCNC(=O)COC3CCCCCc4c3nnn4CC3OC4OC5C(CO)OC(OC6C(CO)OC(OC7C(CO)OC(OC8C(CO)OC(OC9C(CO)OC(OC3C(O)C4O)C(O)C9O)C(O)C8O)C(O)C7O)C(O)C6O)C(O)C5O)NC(=O)CCOCCOCCOCCOCCNC(=O)CCC(=O)N3Cc4ccccc4C#Cc4ccccc43)C(C)C)cc2)O1 (stereo partly shown) [Ex59, DIBAC-suc-PEG4-dLys(COT-CD)-vcPAB-1h] | – | – | – | – | 29% | % (% ≤50 CapB (%)) | 28.9% | – | – | 0.026 (≈ 9.64 µM) | 0.026 (≈ 9.64 µM) | 0.026 (≈ 9.64 µM) | – | –
CC[C@H](C)[C@@H]([C@@H](CC(=O)N1CCC[C@H]1[C@H](OC)[C@@H](C)C(=O)N[C@H](C)[C@@H](O)c1ccccc1)OC)N(C)C(=O)[C@@H](NC(=O)[C@@H](NC)C(C)C)C(C)C [MMAE] (H-[NMeV]V[Dil][Dolaproine]-X1) | – | – | – | – | – | – | – | – | – | – | – | – | 9.72 | ≥90
